# Test results published in PubChem BioAssay AID328 (DTP/NCI, 2004).
# “And” between values parts separate entries of the source, which are not always exact repeats. Equal entries are not always repeated. Toxic doses and inconclusive results are not listed.
# Test system: BDF1 mice, P388 leukemia ip, median survival T/C
# Experiment: NCI In Vivo Anticancer Drug Screen. Data for tumor model P388 Leukemia (intraperitoneal) in B6D2F1 (BDF1) mice
# Conditions: endpoint: median survival time, higher = longer survival
# Outline: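 Transplantable tumour in mice; compound vs vehicle dosing; survival scored; ratio of treated to control reported.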
# [1] = dose: 100.0 mg/kg/injection, schedule: Q01DX009 (ip), vehicle: saline
# [2] = dose: 100.0 mg/kg/injection, schedule: Q04DX003 (ip), vehicle: saline
# [3] = dose: 100.0 mg/kg/injection, schedule: Q01DX009 (ip), vehicle: other
# [4] = dose: 100.0 mg/kg/injection, schedule: Q04DX003 (ip), vehicle: Klucel (hydroxypropylcellulose) (HPC)
# [5] = dose: 200.0 mg/kg/injection, schedule: Q04DX003 (ip), vehicle: Klucel (hydroxypropylcellulose) (HPC)
# [6] = dose: 400.0 mg/kg/injection, schedule: Q04DX003 (ip), vehicle: Klucel (hydroxypropylcellulose) (HPC)
# [7] = dose: 100.0 mg/kg/injection, schedule: Q01DX009 (ip), vehicle: Klucel (hydroxypropylcellulose) (HPC)
# [8] = dose: 200.0 mg/kg/injection, schedule: Q01DX009 (ip), vehicle: Klucel (hydroxypropylcellulose) (HPC)
# [9] = dose: 25.0 mg/kg/injection, schedule: Q01DX009 (ip), vehicle: saline with Tween-80
# [10] = dose: 50.0 mg/kg/injection, schedule: Q01DX009 (ip), vehicle: saline with Tween-80
# [11] = dose: 100.0 mg/kg/injection, schedule: Q01DX009 (ip), vehicle: saline with Tween-80
smiles,measurement,setting,value
CCCSc1ccc([N+](=O)[O-])cc1,T/C,"dose: 200.0 mg/kg/injection, schedule: Q04DX002 (ip), vehicle: saline with Tween-80",93 % of control
same,T/C,"dose: 400.0 mg/kg/injection, schedule: Q04DX002 (ip), vehicle: saline with Tween-80",101 % of control
c1ccc2cc(Nc3ccc(Nc4ccc5ccccc5c4)cc3)ccc2c1,T/C,"dose: 100.0 mg/kg/injection, schedule: Q01DX001 (ip), vehicle: Klucel (hydroxypropylcellulose) (HPC)",100 % of control
same,T/C,"dose: 200.0 mg/kg/injection, schedule: Q01DX001 (ip), vehicle: Klucel (hydroxypropylcellulose) (HPC)",91 % of control
same,T/C,"dose: 400.0 mg/kg/injection, schedule: Q01DX001 (ip), vehicle: Klucel (hydroxypropylcellulose) (HPC)",95 % of control
CCC(=O)NC,T/C,[1],122 % of control
same,T/C,[2],100 % of control
same,T/C,"dose: 200.0 mg/kg/injection, schedule: Q01DX009 (ip), vehicle: saline",100 % of control
same,T/C,"dose: 200.0 mg/kg/injection, schedule: Q04DX003 (ip), vehicle: saline",104 % of control
same,T/C,"dose: 400.0 mg/kg/injection, schedule: Q01DX009 (ip), vehicle: saline",109 % of control
same,T/C,"dose: 400.0 mg/kg/injection, schedule: Q04DX003 (ip), vehicle: saline",100 % of control
CNc1ccc(OC)cc1,T/C,[3],100 % of control
same,T/C,"dose: 200.0 mg/kg/injection, schedule: Q01DX009 (ip), vehicle: other",104 % of control
same,T/C,"dose: 400.0 mg/kg/injection, schedule: Q01DX009 (ip), vehicle: other",104 % of control
CC1=CC(OC2CCCCO2)C2CC1C2(C)C (stereo unspecified),T/C,[4],112 % of control
same,T/C,[5],112 % of control
same,T/C,[6],104 % of control
CS(C)=O.CS(C)=O.[Cl][Sn]([Cl])([Cl])[Cl],T/C,"dose: 37.5 mg/kg/injection, schedule: Q01DX009 (ip), vehicle: Klucel (hydroxypropylcellulose) (HPC)",105 % of control
same,T/C,"dose: 75.0 mg/kg/injection, schedule: Q01DX009 (ip), vehicle: Klucel (hydroxypropylcellulose) (HPC)",100 % of control
same,T/C,[4],104 % of control
same,T/C,"dose: 150.0 mg/kg/injection, schedule: Q01DX009 (ip), vehicle: Klucel (hydroxypropylcellulose) (HPC)",100 % of control
same,T/C,[5],90 % of control
COc1cc2cc(Oc3ccc4ccc(=O)oc4c3)c(=O)oc2cc1O,T/C,"dose: 3.12 mg/kg/injection, schedule: Q01DX009 (ip), vehicle: carboxymethylcellulose (CMC)",95 % of control
same,T/C,"dose: 6.25 mg/kg/injection, schedule: Q01DX009 (ip), vehicle: carboxymethylcellulose (CMC)",116 % of control
same,T/C,"dose: 6.25 mg/kg/injection, schedule: Q01DX009 (ip), vehicle: saline + alcohol",90 % of control
same,T/C,"dose: 12.5 mg/kg/injection, schedule: Q01DX009 (ip), vehicle: carboxymethylcellulose (CMC)",104 % of control
same,T/C,"dose: 12.5 mg/kg/injection, schedule: Q01DX009 (ip), vehicle: saline + alcohol",95 % of control
same,T/C,"dose: 25.0 mg/kg/injection, schedule: Q01DX009 (ip), vehicle: carboxymethylcellulose (CMC)",108 % of control
same,T/C,"dose: 25.0 mg/kg/injection, schedule: Q01DX009 (ip), vehicle: saline + alcohol",113 % of control
CCCCC(CC)CC1CCCCC1O (stereo unspecified),T/C,[7],87 % of control
same,T/C,[4],122 % of control
same,T/C,[8],91 % of control
same,T/C,[5],109 % of control
same,T/C,[6],95 % of control
CNC(=O)OCc1c(COC(=O)NC)c(-c2ccc(Cl)cc2Cl)n2c1CCC2,T/C,[3],158 % of control
CCN1CC1 (tested in a mixture with another compound),T/C,"dose: 0.14 mg/kg/injection, schedule: Q01DX009 (ip), vehicle: saline",95 % of control
same,T/C,"dose: 0.29 mg/kg/injection, schedule: Q01DX009 (ip), vehicle: saline",86 % of control
same,T/C,"dose: 0.58 mg/kg/injection, schedule: Q01DX009 (ip), vehicle: saline",90 % of control
same,T/C,"dose: 1.17 mg/kg/injection, schedule: Q01DX009 (ip), vehicle: saline",120 % of control
same,T/C,"dose: 2.34 mg/kg/injection, schedule: Q01DX009 (ip), vehicle: saline",120 % of control
O=[N+]([O-])/C=C/c1ccc2ccccc2c1,T/C,"dose: 88.0 mg/kg/injection, schedule: Q04DX003 (ip), vehicle: saline sonified",116 % of control
same,T/C,"dose: 100.0 mg/kg/injection, schedule: Q01DX009 (ip), vehicle: saline sonified",100 % of control
same,T/C,"dose: 100.0 mg/kg/injection, schedule: Q04DX003 (ip), vehicle: saline with Tween-80",120 % of control
same,T/C,"dose: 132.0 mg/kg/injection, schedule: Q04DX003 (ip), vehicle: saline sonified",116 % of control
same,T/C,"dose: 200.0 mg/kg/injection, schedule: Q04DX003 (ip), vehicle: saline sonified",111 % of control
same,T/C,"dose: 300.0 mg/kg/injection, schedule: Q04DX003 (ip), vehicle: saline sonified",116 % of control
same,T/C,"dose: 400.0 mg/kg/injection, schedule: Q04DX003 (ip), vehicle: saline with Tween-80",90 % of control
COc1cc(O)c(Cc2ccccc2O)c(O)c1C(=O)CCc1ccccc1,T/C,"dose: 0.5 mg/kg/injection, schedule: Q01DX009 (ip), vehicle: alcohol",100 % of control
same,T/C,"dose: 2.0 mg/kg/injection, schedule: Q01DX009 (ip), vehicle: alcohol",105 % of control
same,T/C,"dose: 4.0 mg/kg/injection, schedule: Q01DX009 (ip), vehicle: alcohol",97 % of control
same,T/C,"dose: 5.9 mg/kg/injection, schedule: Q01DX009 (ip), vehicle: alcohol",119 % of control
same,T/C,"dose: 9.0 mg/kg/injection, schedule: Q01DX009 (ip), vehicle: alcohol",101 % of control
COc1ccc(-c2c(C#N)cnc(C)c2C)c(O)c1OC,T/C,"dose: 0.2 mg/kg/injection, schedule: Q01DX009 (ip), vehicle: Klucel (hydroxypropylcellulose) (HPC)",95 % of control
CC(C)C1(C)NC(=O)NC1=O (stereo unspecified),T/C,"dose: 100.0 mg/kg/injection, schedule: Q01DX001 (ip), vehicle: saline",113 % of control
same,T/C,"dose: 200.0 mg/kg/injection, schedule: Q01DX001 (ip), vehicle: saline",109 % of control
same,T/C,"dose: 400.0 mg/kg/injection, schedule: Q01DX001 (ip), vehicle: saline",95 % of control
C[CH2][Ge]([CH2]C)[CH2]/C=C\[CH2][Ge]([CH2]C)[CH2]C,T/C,"dose: 12.5 mg/kg/injection, schedule: Q01DX009 (ip), vehicle: saline with Tween-80",100 % of control
same,T/C,[9],89 % of control
same,T/C,[10],100 % of control
CC(=O)NCCN=Cc1ccccc1,T/C,[11],112 % of control
same,T/C,"dose: 200.0 mg/kg/injection, schedule: Q01DX009 (ip), vehicle: saline with Tween-80",120 % of control
COC(=O)C(=O)[C@@H](O)[C@H](O)[C@@H](O)CO,T/C,[7],100 % of control
same,T/C,[8],113 % of control
same,T/C,"dose: 400.0 mg/kg/injection, schedule: Q01DX009 (ip), vehicle: Klucel (hydroxypropylcellulose) (HPC)",109 % of control
CCCCNP(=O)(N1CC1CC)N1CC1CC (stereo unspecified),T/C,[2],122 % of control
C/C=C/C=C/C(=O)c1ccc(OC)cc1O,T/C,[10],109 % of control
same,T/C,[11],109 % of control
Nc1ncccc1C(=O)O,T/C,"dose: 62.5 mg/kg/injection, schedule: Q01DX010 (ip), vehicle: saline",90 % of control
same,T/C,"dose: 125.0 mg/kg/injection, schedule: Q01DX010 (ip), vehicle: saline",100 % of control
same,T/C,"dose: 250.0 mg/kg/injection, schedule: Q01DX010 (ip), vehicle: carboxymethylcellulose (CMC)",113 % of control
same,T/C,"dose: 500.0 mg/kg/injection, schedule: Q01DX010 (ip), vehicle: carboxymethylcellulose (CMC)",100 % of control
C=CCOP(=O)(N1CC1C)N1CC1C (stereo unspecified),T/C,"dose: 6.25 mg/kg/injection, schedule: Q01DX009 (ip), vehicle: saline",106 % of control
same,T/C,"dose: 12.5 mg/kg/injection, schedule: Q01DX009 (ip), vehicle: saline",99 % of control
same,T/C,"dose: 25.0 mg/kg/injection, schedule: Q01DX009 (ip), vehicle: saline",106 % of control
same,T/C,"dose: 30.0 mg/kg/injection, schedule: Q04DX003 (ip), vehicle: saline",109 % of control
same,T/C,"dose: 45.0 mg/kg/injection, schedule: Q04DX003 (ip), vehicle: saline",118 % of control
same,T/C,"dose: 75.0 mg/kg/injection, schedule: Q01DX009 (ip), vehicle: saline",150 % of control and 161 % of control
same,T/C,[1],117 % of control
same,T/C,[2],180 % of control and 188 % of control
same,T/C,"dose: 150.0 mg/kg/injection, schedule: Q04DX003 (ip), vehicle: saline",188 % of control
CN(C)CCC(O)Cc1ccccc1 (stereo unspecified),T/C,"dose: 50.0 mg/kg/injection, schedule: Q04DX003 (ip), vehicle: acetone",100 % of control
same,T/C,"dose: 100.0 mg/kg/injection, schedule: Q04DX003 (ip), vehicle: acetone",100 % of control
same,T/C,"dose: 200.0 mg/kg/injection, schedule: Q04DX003 (ip), vehicle: acetone",105 % of control
COc1ccc2c(c1)CCC(C)(C#N)C2=O (stereo unspecified),T/C,[9],100 % of control
same,T/C,[10],100 % of control
same,T/C,[11],104 % of control
